One test concerns S. aureus strain DK825. Description: microbe, parasite or virus in culture. It counts as cell-based, Staphylococcus aureus. The procedure: Antibiotic susceptibility testing. Susceptibility tests were performed in Sensititre microtitre plates according to the manufacturer's instructions (Microbiology Systems).
The next test deals with S. aureus. Kind of test: Biofilm formation on polystyrene microtitre plates (crystal violet, O.D.570). Type of test: cell-based, Staphylococcus aureus. The following applies: DK825, 200 μM. The protocol:
Effect of c-di-GMP on S. aureus biofilm formation. S. aureus strains were subcultured from glycerol stocks onto blood agar plates and incubated at 37° C. for 18 h. A single colony was inoculated into 5 ml TSB broth with a sterilized loop and incubated at 37° C. for 18 h with shaking at 250 rpm and until the O.D.660 reached 3.0 as measured spectrophotometrically using a spectrophotometer (SpectraMAX 250, Molecular Devices). Following incubation, the culture was diluted 1:250 with fresh TSB and a 200 μl of the diluted culture was transferred into wells of a flat-bottom polystyrene microtitre plate (Evergreen Scientific). […] In these biofilm experiments, similar volumes of 0.9% NaCl was added to a set of different wells representing the “untreated” control samples. The microtitre plates were then incubated statically at 37° C. for 24 h or 48 h. Following incubation, the supernatant was carefully discarded and the wells washed twice with 260 μl PBS. The plate was then kept for drying on a paper towel for 30 min after which 260 μl 0.1% crystal violet was added to each well and the plates incubated at room temperature for 30 min. The crystal violet was discarded and plate washed gently with water, the wells allowed to dry for 30 min then 260 μl DMSO was added to each well and gently agitated for 1 h and the O.D.570 measured by using a spectrophotometer (SpectraMAX 250, Molecular Devices). The results of these biofilm assays were based on data obtained from at least three independent colonies tested in duplicate.

Another test deals with S. aureus strain 15981. To be noted: S. aureus 15981, hyperbiofilm human clinical strain; cited from earlier work.

The source of these data is US8367716B2 (priority 2003, dated 2013).

Values after ≈ are worked out from the molar mass of the structure shown. Where only a bound is given, the exact number is not on record here.

`Cc1onc(-c2ccccc2)c1C(=O)N[C@@H]1C(=O)N2[C@@H]1SC(C)(C)[C@@H]2C(=O)O` [Oxacillin] registered an MIC against S. aureus strain DK825 (Staphylococcus aureus, MRSA) of more than 2 µg/mL.
On the same count and under the same terms, to `CC[C@H]1OC(=O)[C@H](C)[C@@H](O[C@H]2C[C@@](C)(OC)[C@@H](O)[C@H](C)O2)[C@H](C)[C@@H](O[C@@H]2O[C@H](C)C[C@H](N(C)C)[C@H]2O)[C@](C)(OC)C[C@@H](C)C(=O)[C@H](C)[C@@H](O)[C@]1(C)O` [Clarithromycin] belongs more than 4 µg/mL; to `CCC[C@@H]1C[C@@H](C(=O)N[C@@H]([C@H]2O[C@H](SC)[C@H](O)[C@@H](O)[C@H]2O)[C@H](C)Cl)N(C)C1` [Clindamycin], more than 2 µg/mL.
Regarding Penicillin, the MIC against S. aureus strain DK825 (S. aureus DK825 (MRSA)) is more than 8 µg/mL.
`O=C(O)c1cn(C2CC2)c2cc(N3CCNCC3)c(F)cc2c1=O` [Ciprofloxacin] had an MIC with S. aureus strain DK825 (Staphylococcus aureus, MRSA) of more than 2 µg/mL.
Regarding `Nc1nc2c(ncn2[C@@H]2O[C@@H]3COP(=O)(O)O[C@H]3[C@H]2O)c(=O)[nH]1` [cGMP, guanosine 3′, 5′-cyclic monophosphate, reference compound], in the test with S. aureus (24 h), the “reduction of biofilm formation” value is on record as approximately 40%.
In the test with S. aureus strain DK825 (Staphylococcus aureus, MRSA), `CC[C@H]1OC(=O)[C@H](C)[C@@H](O[C@H]2C[C@@](C)(OC)[C@@H](O)[C@H](C)O2)[C@H](C)[C@@H](O[C@@H]2O[C@H](C)C[C@H](N(C)C)[C@H]2O)[C@](C)(O)C[C@@H](C)C(=O)[C@H](C)[C@@H](O)[C@]1(C)O` [Erythromycin] had an MIC of more than 4 µg/mL. Besides, in the test with S. aureus strain 15981, the antibiotic susceptibility entry is given as “susceptible”.
For `C[C@@H]1O[C@@H]1P(=O)(O)O` [FOF], the antibiotic susceptibility entry in the test on S. aureus strain 15981 was “susceptible”.
With `COc1cccc(OC)c1C(=O)N[C@@H]1C(=O)N2[C@@H]1SC(C)(C)[C@@H]2C(=O)O` [MET], in the test on S. aureus strain 15981, the antibiotic susceptibility result was “susceptible”.
With `Nc1nc2c(ncn2[C@@H]2O[C@H](COP(=O)(O)O)[C@@H](O)[C@H]2O)c(=O)[nH]1` [5′-GMP, guanosine 5′-monophosphate, reference compound], the “effect on biofilm formation” value in the test with S. aureus is “no effect”.
In the case of `C[C@H]1COc2c(N3CCN(C)CC3)c(F)cc3c(=O)c(C(=O)O)cn1c23` [Levofloxacin], the MIC with S. aureus strain DK825 (Staphylococcus aureus, MRSA) is 2 µg/mL (≈ 5.53 µM).
Regarding `C[C@H]1c2cccc(O)c2C(O)=C2C(=O)[C@]3(O)C(O)=C(C(N)=O)C(=O)[C@@H](N(C)C)[C@@H]3[C@@H](O)[C@@H]21` [DOX], the antibiotic susceptibility result with S. aureus strain 15981 was “susceptible”.
The molecule `COc1c(N2C[C@@H]3CCCN[C@@H]3C2)c(F)cc2c(=O)c(C(=O)O)cn(C3CC3)c12` [Moxifloxacin] returned an MIC against S. aureus strain DK825 (Staphylococcus aureus, MRSA) of 2 µg/mL (≈ 4.98 µM).
For `CN[C@H](CC(C)C)C(=O)N[C@H]1C(=O)N[C@@H](CC(N)=O)C(=O)N[C@H]2C(=O)N[C@H]3C(=O)N[C@H](C(=O)N[C@H](C(=O)O)c4cc(O)cc(O)c4-c4cc3ccc4O)[C@H](O)c3ccc(c(Cl)c3)Oc3cc2cc(c3O[C@@H]2O[C@H](CO)[C@@H](O)[C@H](O)[C@H]2O[C@H]2C[C@](C)(N)[C@H](O)[C@H](C)O2)Oc2ccc(cc2Cl)[C@H]1O` [Vancomycin], the MIC against S. aureus strain DK825 (Staphylococcus aureus, MRSA) was less than 0.5 µg/mL. In addition, the antibiotic susceptibility entry with S. aureus strain 15981 is reported as “susceptible”.
Turning to `CC1(C)S[C@@H]2[C@H](NC(=O)[C@H](N)c3ccc(O)cc3)C(=O)N2[C@H]1C(=O)O` [AMX], the antibiotic susceptibility entry in the test on S. aureus strain 15981 is “susceptible”.
As for `CO[C@H]1/C=C/O[C@@]2(C)Oc3c(C)c(O)c4c(O)c(c(/C=N/N5CCN(C)CC5)c(O)c4c3C2=O)NC(=O)/C(C)=C\C=C\[C@H](C)[C@H](O)[C@@H](C)[C@@H](O)[C@@H](C)[C@H](OC(C)=O)[C@@H]1C` [Rifampin], in the test on S. aureus strain DK825 (Staphylococcus aureus, MRSA), the MIC is more than 2 µg/mL.
`CC1(C)S[C@@H]2[C@H](NC(=O)[C@H](N)c3ccccc3)C(=O)N2[C@H]1C(=O)O` [Ampicillin] came in with an MIC in the test on S. aureus strain DK825 (Staphylococcus aureus, MRSA) of 4 µg/mL (≈ 11.4 µM).
